Where a SMILES comes first, the peptide text is derived from it. [ ]: non-standard residue; d: D form. The star is where a group is joined. X1 = O=C(O)CN1CCN(CC(=O)O)CCN([C@H](CCC(=O)*)C(=O)O)CC1; Sar = CNCC(=O)O
Assays:
[1] = LogD7.4 determination (octanol/PBS); type: physicochemical; conditions: octanol / PBS pH 7.4
Protocol: The obtained solutions from ^67Ga labeling were diluted with water in a 1:1 ratio and brought to pH 7 using aqueous NaOH (1 M). For LogD7.4 determination, 10 μL of neutralized labeling solution was diluted with 290 μL 1× PBS (pH 7.4) and 300 μL 1-Octanol (both pre-saturated by each other). The mixture was vortexed vigorously for 30 s and subsequently centrifuged for 5 min at 16,100 rcf. Defined volumes of each layer (10 μL for PBS, 200 μL for Octanol) were taken and analyzed for their radioactivity (ISOMED 100, Nuvia, Frankfurt, Germany). The partition coefficient LogD7.4 was determined from the decadic logarithm of the fraction of the radioactivity content of the aqueous and octanol layers.

[2] = Stability in human serum (radio-HPLC, LC-MS); type: in vitro ADME; conditions: for remaining at 24 h: read-out: radioligand intact after 24 h in human serum
Protocol: For human serum stability investigation, 60 μL of the ^67Ga labeling mixture was mixed with 540 μL human serum and incubated at 37 °C. Aliquots of 25 μL were taken after 1, 2, 4 and 24 h. The aliquots were mixed with 75 μL of a mixture called “Supersol” (20% v/v EtOH, 0.5% Triton X-100, 5 mM EDTA, 0.5 mM o-phenantroline, and 0.1% saponine in water) and put on ice for 5 min. Subsequently, the mixtures were centrifuged at 16,100 rcf, 4 °C for 5 min. The supernatant was analyzed by analytical radio-HPLC. Serum half-lives were determined by non-linear regression according to one-phase decay. To determine the stability in labeling buffer, the labeling mixture was left at ambient temperature for 4 h. Subsequently, an aliquot of 5 μL was mixed with 45 μL of Supersol and analyzed with analytical radio-HPLC.
Analytical radio-HPLC was performed on a modular unit consisting of an operating unit (smartline manager 500, Knauer, Berlin, Germany), a pump unit (smartline pump 1000, Knauer, Berlin, Germany), a photo diode array detector (smartline PDA 2800, Knauer, Berlin, Germany) and a γ-detector (Ramona Star, Raytest, Lüttich, Belgium). The system was operated by the software Chromgate 2.8. Chromatography was conducted on a C18 column (Eurospher 100-5, 250 × 4 mm, Knauer, Berlin, Germany) at a flow rate of 1 mL/min.

human serum = conditions: up to 24 h

logD [1] | remaining at 24 h ([2]; 37 °C) | Compound | further results
-4.78 ± 0.05 | – | CC[C@H](C)[C@H](NC(=O)[C@H](CC(N)=O)NC(=O)[C@@H]1CCCN1C(=O)[C@@H]1CCCN1C(=O)[C@H](CCCNC(=N)N)NC(=O)[C@H](CC(=O)O)NC(=O)[C@H](CC(N)=O)NC(=O)[C@H](CO)NC(=O)CC[C@H](C(=O)O)N1CCN(CC(=O)O)CCN(CC(=O)O)CC1)C(=O)N[C@@H](CC(C)C)C(=O)N[C@@H](CCC(N)=O)C(=O)N[C@@H](CCCCN)C(=O)N[C@@H](CCCNC(=N)N)C(=O)O [[^67Ga]Ga-NODA-GA-TJ12P2(K^11), metal not drawn] (X1-SNDRPPNILQKR-OH) | remaining at 1 h ([2]; 37 °C, 1 h, read-out: radioligand intact after 1 h in human serum): 9.3%; half-life ([2]; human, serum, 37 °C, one-phase decay): 17.4 min; degradation product in human serum ([2]; radio-HPLC or LC-MS after 24 h): formation of a single metabolite
-4.79 ± 0.03 | 72% | CC[C@H](C)[C@H](NC(=O)[C@H](CC(N)=O)NC(=O)[C@@H]1CCCN1C(=O)[C@@H]1CCCN1C(=O)[C@H](CCCNC(=N)N)NC(=O)[C@H](CC(=O)O)NC(=O)[C@H](CC(N)=O)NC(=O)[C@H](CO)NC(=O)CC[C@H](C(=O)O)N1CCN(CC(=O)O)CCN(CC(=O)O)CC1)C(=O)N[C@@H](CC(C)C)C(=O)N[C@@H](CCC(N)=O)C(=O)N[C@@H](CCC(N)=O)C(=O)N[C@@H](CCCNC(=N)N)C(=O)O [[^67Ga]Ga-NODA-GA-TJ12P2(Q^11), metal not drawn] (X1-SNDRPPNILQQR-OH) | –

The remaining lines, values behind:

Compound | logD [1] | remaining at 24 h ([2]; 37 °C) | further results
CC[C@H](C)[C@H](NC(=O)[C@H](CC(N)=O)NC(=O)[C@@H]1CCCN1C(=O)[C@@H]1CCCN1C(=O)[C@H](CCCNC(=N)N)NC(=O)[C@H](CC(=O)O)NC(=O)[C@H](CC(N)=O)NC(=O)[C@@H](N)CO)C(=O)N[C@@H](CC(C)C)C(=O)N[C@@H](CCC(N)=O)C(=O)N[C@@H](CCCCN)C(=O)N[C@@H](CCCNC(=N)N)C(=O)N(C)CC(=O)N(C)CC(=O)N(C)CC(=O)N[C@@H](CCCCNC(=O)CC[C@H](C(=O)O)N1CCN(CC(=O)O)CCN(CC(=O)O)CC1)C(N)=O [TJ12P2(K^11)-X3K-[^67Ga]Ga-NODA-GA-CONH2, metal not drawn] (H-SNDRPPNILQKR[Sar][Sar][Sar]K(X1)-NH2) | -4.79 ± 0.03 | 89% | –
CC[C@H](C)[C@H](NC(=O)[C@H](CC(N)=O)NC(=O)[C@@H]1CCCN1C(=O)[C@@H]1CCCN1C(=O)[C@H](CCCNC(=N)N)NC(=O)[C@H](CC(=O)O)NC(=O)[C@H](CC(N)=O)NC(=O)[C@@H](N)CO)C(=O)N[C@@H](CC(C)C)C(=O)N[C@@H](CCC(N)=O)C(=O)N[C@@H](CCC(N)=O)C(=O)N[C@@H](CCCNC(=N)N)C(=O)N(C)CC(=O)N(C)CC(=O)N(C)CC(=O)N[C@@H](CCCCNC(=O)CC[C@H](C(=O)O)N1CCN(CC(=O)O)CCN(CC(=O)O)CC1)C(N)=O [TJ12P2(Q^11)-X3K-[^67Ga]Ga-NODA-GA-CONH2, metal not drawn] (H-SNDRPPNILQQR[Sar][Sar][Sar]K(X1)-NH2) | -4.61 ± 0.05 | 95% | –
SNDRPPNILQQRXXXK(NODA-GA) | – | – | not cleaved (human serum; 37 °C): 95% still intact after 24 h
SulfoCy3-SNDRPPNILQKR | – | – | cleaved bond (human serum): Lys11-arginine
